Laboratory results as given in the supplement of paper PMC10307832.

What was measured:
Assay in all cases: relative viability (nuclei count vs DMSO), 5 days (fraction); higher = more cells survive
NCI-H1915 = system: NCI-H1915
How it was run: (§1)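 Relative viability divides the nuclei count in treated wells by that in vehicle wells. Lung cancer cell lines were seeded in 1536-well plates, dosed by pin tool the next day, and fixed and stained after 5 days in one step with final 0.05% Triton X-100, 1% formaldehyde and 1 ug/ml Hoechst. Dosing was a single drug or a fixed anchor-drug dose plus five library-drug doses (not always all listed) in √10 steps, and values are medians of duplicate plates imaged at 4×.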

SW 900 = system: SW 900
How it was run: as §1

NCI-H1755 = system: NCI-H1755
How it was run: as §1

LCLC-103H = system: LCLC-103H
How it was run: as §1

NCI-H661 = system: NCI-H661
How it was run: as §1

NCI-H2347 = system: NCI-H2347
How it was run: as §1

NCI-H1651 = system: NCI-H1651
How it was run: as §1

NCI-H3122 = system: NCI-H3122
How it was run: as §1

NCI-H1792 = system: NCI-H1792
How it was run: as §1

NCI-H460 = system: NCI-H460
How it was run: as §1

PC-14 = system: PC-14
How it was run: as §1

LXF-289 = system: LXF-289
How it was run: as §1

NCI-H441 = system: NCI-H441
How it was run: as §1

SK-MES-1 = system: SK-MES-1
How it was run: as §1

RERF-LC-KJ = system: RERF-LC-KJ
How it was run: as §1

NCI-H650 = system: NCI-H650
How it was run: as §1

NCI-H596 = system: NCI-H596
How it was run: as §1

NCI-H520 = system: NCI-H520
How it was run: as §1

NCI-H322M = system: NCI-H322M
How it was run: as §1

NCI-H727 = system: NCI-H727
How it was run: as §1

NCI-H2170 = system: NCI-H2170
How it was run: as §1

NCI-H1563 = system: NCI-H1563
How it was run: as §1

NCI-H1355 = system: NCI-H1355
How it was run: as §1

For `O=C(O)c1ccc(-c2c[nH]c3ncc(-c4ccccc4)cc23)cc1C1CCCC1` + COc1cccc2cc(-c3nc([C@H]4CC[C@H](C(=O)O)CC4)n4ncnc(N)c34)[nH]c12 [OSI-027] (partner 0.5 µM), the relative viability (NCI-H1915; first compound 0.04 µM) was 0.629, the relative viability (NCI-H1915; first compound 0.1265 µM) was 0.638 and the relative viability (NCI-H1915; first compound 0.4 µM) was 0.604. The relative viability (NCI-H1915; first compound 1.265 µM) was 0.545, the relative viability (SW 900; first compound 0.04 µM) was 0.696 and the relative viability (SW 900; first compound 0.1265 µM) was 0.493. It also gave a relative viability (SW 900; first compound 0.4 µM) of 0.631, a relative viability (SW 900; first compound 1.265 µM) of 0.595 and a relative viability (NCI-H1755; first compound 0.04 µM) of 0.748. The relative viability (NCI-H1755; first compound 0.1265 µM) was 0.814, the relative viability (NCI-H1755; first compound 0.4 µM) was 0.724 and the relative viability (NCI-H1755; first compound 1.265 µM) was 0.673. For the same compound, the relative viability (LCLC-103H; first compound 0.04 µM) was 0.444, the relative viability (LCLC-103H; first compound 0.1265 µM) was 0.554 and the relative viability (LCLC-103H; first compound 0.4 µM) was 0.389. It also gave a relative viability (LCLC-103H; first compound 1.265 µM) of 0.452, a relative viability (NCI-H661; first compound 0.04 µM) of 0.766 and a relative viability (NCI-H661; first compound 0.4 µM) of 0.718. For the same compound, the relative viability (NCI-H661; first compound 1.265 µM) was 0.734, the relative viability (NCI-H2347; first compound 0.04 µM) was 0.451 and the relative viability (NCI-H2347; first compound 0.1265 µM) was 0.392. For the same compound, the relative viability (NCI-H2347; first compound 0.4 µM) was 0.425, the relative viability (NCI-H2347; first compound 1.265 µM) was 0.367 and the relative viability (NCI-H1651; first compound 0.04 µM) was 0.659. The relative viability (NCI-H1651; first compound 0.1265 µM) was 0.715, the relative viability (NCI-H1651; first compound 0.4 µM) was 0.67 and the relative viability (NCI-H1651; first compound 1.265 µM) was 0.583. The relative viability (NCI-H3122; first compound 0.04 µM) was 0.973, the relative viability (NCI-H3122; first compound 0.1265 µM) was 1.12 and the relative viability (NCI-H3122; first compound 0.4 µM) was 0.922. It also gave a relative viability (NCI-H3122; first compound 1.265 µM) of 0.717, a relative viability (NCI-H1792; first compound 0.1265 µM) of 0.908 and a relative viability (NCI-H1792; first compound 0.4 µM) of 0.698. The relative viability (NCI-H1792; first compound 1.265 µM) was 0.696, the relative viability (NCI-H460; first compound 0.04 µM) was 0.645 and the relative viability (NCI-H460; first compound 0.1265 µM) was 0.75. The relative viability (NCI-H460; first compound 0.4 µM) was 0.683, the relative viability (NCI-H460; first compound 1.265 µM) was 0.511 and the relative viability (PC-14; first compound 0.04 µM) was 0.759. For the same compound, the relative viability (PC-14; first compound 0.1265 µM) was 0.86, the relative viability (PC-14; first compound 0.4 µM) was 0.826 and the relative viability (PC-14; first compound 1.265 µM) was 0.877. It also gave a relative viability (LXF-289; first compound 0.04 µM) of 0.848, a relative viability (LXF-289; first compound 0.1265 µM) of 0.879 and a relative viability (LXF-289; first compound 0.4 µM) of 0.764. For the same compound, the relative viability (LXF-289; first compound 1.265 µM) was 0.581, the relative viability (NCI-H441; first compound 0.04 µM) was 0.675 and the relative viability (NCI-H441; first compound 0.1265 µM) was 0.567. It also gave a relative viability (NCI-H441; first compound 0.4 µM) of 0.571, a relative viability (NCI-H441; first compound 1.265 µM) of 0.466 and a relative viability (SK-MES-1; first compound 0.04 µM) of 0.647. It also gave a relative viability (SK-MES-1; first compound 0.1265 µM) of 0.648, a relative viability (SK-MES-1; first compound 0.4 µM) of 0.622 and a relative viability (SK-MES-1; first compound 1.265 µM) of 0.41. For the same compound, the relative viability (RERF-LC-KJ; first compound 0.04 µM) was 0.561, the relative viability (RERF-LC-KJ; first compound 0.1265 µM) was 0.598 and the relative viability (RERF-LC-KJ; first compound 0.4 µM) was 0.582. For the same compound, the relative viability (RERF-LC-KJ; first compound 1.265 µM) was 0.527, the relative viability (NCI-H650; first compound 0.04 µM) was 0.522 and the relative viability (NCI-H650; first compound 0.1265 µM) was 0.6. For the same compound, the relative viability (NCI-H650; first compound 0.4 µM) was 0.485, the relative viability (NCI-H650; first compound 1.265 µM) was 0.457 and the relative viability (NCI-H596; first compound 0.04 µM) was 0.728. The relative viability (NCI-H596; first compound 0.1265 µM) was 0.733, the relative viability (NCI-H596; first compound 0.4 µM) was 0.833 and the relative viability (NCI-H596; first compound 1.265 µM) was 0.654. It also gave a relative viability (NCI-H520; first compound 0.04 µM) of 0.23, a relative viability (NCI-H520; first compound 0.1265 µM) of 0.269 and a relative viability (NCI-H520; first compound 0.4 µM) of 0.336. It also gave a relative viability (NCI-H520; first compound 1.265 µM) of 0.242, a relative viability (NCI-H322M; first compound 0.04 µM) of 0.546 and a relative viability (NCI-H322M; first compound 0.1265 µM) of 0.588. The relative viability (NCI-H322M; first compound 0.4 µM) was 0.674, the relative viability (NCI-H322M; first compound 1.265 µM) was 0.521 and the relative viability (NCI-H727; first compound 0.04 µM) was 0.678. The relative viability (NCI-H727; first compound 0.1265 µM) was 0.672, the relative viability (NCI-H727; first compound 0.4 µM) was 0.887 and the relative viability (NCI-H727; first compound 1.265 µM) was 0.667. For the same compound, the relative viability (NCI-H2170; first compound 0.04 µM) was 0.734, the relative viability (NCI-H2170; first compound 0.1265 µM) was 0.685 and the relative viability (NCI-H2170; first compound 0.4 µM) was 0.703. It also gave a relative viability (NCI-H2170; first compound 1.265 µM) of 0.676, a relative viability (NCI-H1563; first compound 0.04 µM) of 0.72 and a relative viability (NCI-H1563; first compound 0.1265 µM) of 0.753. For the same compound, the relative viability (NCI-H1563; first compound 0.4 µM) was 0.783, the relative viability (NCI-H1563; first compound 1.265 µM) was 0.798 and the relative viability (NCI-H1355; first compound 0.04 µM) was 0.43. The relative viability (NCI-H1355; first compound 0.1265 µM) was 0.47, the relative viability (NCI-H1355; first compound 0.4 µM) was 0.371 and the relative viability (NCI-H1355; first compound 1.265 µM) was 0.379.
